Test results taken from patent EP1494749B1, “PROCESS FOR PREPARATION OF PHARMACEUTICAL COMPOSITION CONTAINING ANTIRETROVIRAL PROTEASE INHIBITOR WITH IMPROVED BIOAVAILABILITY” (Cadila Pharmaceuticals Limited, priority 2002, dated 2003).

What was measured:
[1] = in vivo; cited from earlier work
[2] = clinical; settings: human, in vivo
Procedure: 2. Kit In a further aspect, the present invention provides a kit comprising one or more pharmaceutically acceptable doses of an antiretroviral protease inhibitor as defined above and one or more pharmaceutically acceptable doses of piperine or an isomer thereof. […] However, the scope of this invention is not limited by them. […] Nelfinavir i) Two tablets each containing 250 mg of Nelfinavir and a tablet containing 20 mg of piperine. ii) Two tablets each containing 250 mg of Nelfinavir and two tablets each containing 15 mg of piperine. Saquinavir i) Three capsules each containing 200 mg of Saquinavir and three tablets each containing 5 mg of piperine. ii) Four capsules each containing 200 mg of Saquinavir and a tablets containing 20 mg of piperine. 3. The following are Examples of excipients (i.e. other than piperine) which can be used to prepare pharmaceutical compositions of the present invention. However, the scope of this invention is not limited by them. Saquinavir : • Capsule: medium chain mono- and diglycerides, povidone and dl-alpha tocopherol. […] 4. […] However, the scope of this invention is not limited by them. […] 5.

Question: Which “reduction in AUC” value [1] does the source give for CC(C)(C)NC(=O)[C@@H]1CN(Cc2cccnc2)CCN1C[C@@H](O)C[C@@H](Cc1ccccc1)C(=O)N[C@H]1c2ccccc2C[C@H]1O [Indinavir] here?
Answer: The value was 77% ± 8%.

Question: And the Tmax [2]?
Answer: The Tmax was 1.58 h.
